Holding throughout (format): functional
Assay [1] relates to Tetranychus urticae. Put plainly: Acaricidal activity against Tetranychus urticae (two-spotted spider mite) assessed as mortality at 500 ppm.
Assay [2] deals with Chilo suppressalis. As to the kind of experiment: Insecticidal activity against Chilo suppressalis (rice stem borer) assessed as mortality compound administered as topical application.
Assay [3] has as its system Chilo suppressalis. As to the kind of experiment: Insecticidal activity against Chilo suppressalis (rice stem borer) assessed as mortality at 50 ug/g administered as topical application.
In the next assay the test system is Spodoptera litura. As to the kind of experiment: Insecticidal activity against Spodoptera litura assessed as mortality at 500 ppm.
Another assay concerns Culex pipiens molestus. As to the kind of experiment: Insecticidal activity against Culex pipiens molestus assessed as mortality at 5 ppm.
The next assay has as its system Nilaparvata lugens. As to the kind of experiment: Insecticidal activity against Nilaparvata lugens (brown planthopper) assessed as mortality at 50 ppm.
In assay [4] the test system is Tetranychus urticae. Put plainly: Acaricidal activity against Tetranychus urticae (two-spotted spider mite) assessed as mortality.

Take `CN(C)NC1CSSC1.O=C(O)C(=O)O`: the mortality (commonly the percentage killed) at 500 ppm is 100% in the assay with Tetranychus urticae [1] and 0% with Spodoptera litura. In the assay with Chilo suppressalis [2], the LD50 (in general, the dose at which mortality reaches 50%) worked out at 36.2 mg/kg. Moreover, the mortality in the assay with Chilo suppressalis [3] came to 100%. The mortality at 5 ppm in the assay with Culex pipiens molestus worked out at 25%. The mortality at 50 ppm with Nilaparvata lugens came to 45%.

Regarding `CC1CSSC1CN(C)C.O=C(O)C(=O)O` (stereo not drawn), the LC50 (as a rule, the concentration that kills 50% of the test population) with Tetranychus urticae [4] was found to be 209 µg/mL. Further, the mortality at 500 ppm with Tetranychus urticae [1] was 100%; in the assay with Spodoptera litura, 0%. Further, the LD50 with Chilo suppressalis [2] was 50 mg/kg. Also, the mortality with Chilo suppressalis [3] worked out at 80%. For the same molecule, in the assay with Culex pipiens molestus, the mortality at 5 ppm worked out at 0%. Moreover, the mortality at 50 ppm with Nilaparvata lugens amounted to 75%.

Consider `CN(C)CC1CSSC1.O=C(O)C(=O)O`, for which the LC50 in the assay with Tetranychus urticae [4] is 88 µg/mL. The mortality at 500 ppm in the assay on Tetranychus urticae [1] worked out at 100%; in the assay with Spodoptera litura, 90%. Further, the mortality in the assay on Chilo suppressalis [3] came out at 100%. For the same molecule, the mortality at 5 ppm with Culex pipiens molestus was determined as 100%. In addition, the mortality at 50 ppm with Nilaparvata lugens is 100%.

Take `CC(C)C1CSSC1`: the figures for the mortality at 500 ppm in the assay on Tetranychus urticae [1] and with Spodoptera litura were 50% and 20%, respectively. Besides, the mortality with Chilo suppressalis [3] turned out to be 20%. The mortality at 5 ppm in the assay on Culex pipiens molestus was 0%. In the assay with Nilaparvata lugens, the mortality at 50 ppm stood at 0%.

As to `CN(C)CCC1CCSS1.O=C(O)C(=O)O` (stereo not drawn), the LC50 with Tetranychus urticae [4] was found to be 126 µg/mL. The mortality at 500 ppm was found to be 100% in the assay with Tetranychus urticae [1] and 0% with Spodoptera litura. The LD50 in the assay on Chilo suppressalis [2] was 23.2 mg/kg. For the same molecule, in the assay with Chilo suppressalis [3], the mortality is on record as 100%. In addition, in the assay with Culex pipiens molestus, the mortality at 5 ppm was 100%. In the assay with Nilaparvata lugens, the mortality at 50 ppm is 20%.

In the case of `CN(C)C1CSSC1.O=C(O)C(=O)O` [NEREISTOXIN HYDROGEN OXALATE], in the assay with Tetranychus urticae [4], the LC50 was determined as 603 µg/mL. For the same molecule, the mortality at 500 ppm came to 50% in the assay with Tetranychus urticae [1] and 30% with Spodoptera litura. Further, the LD50 in the assay with Chilo suppressalis [2] amounted to 1.7 mg/kg. The mortality with Chilo suppressalis [3] is listed as 100%. Besides, the mortality at 5 ppm in the assay with Culex pipiens molestus is 100%. The mortality at 50 ppm in the assay on Nilaparvata lugens worked out at 100%.

In the case of `CN(C)N(C)C1CSSC1.O=C(O)C(=O)O`, the mortality at 500 ppm in the assay with Tetranychus urticae [1] was 100%; with Spodoptera litura, 0%. For the same molecule, the 50% lethal dose (LD50) with Chilo suppressalis [2] was found to be 15 mg/kg. The mortality in the assay on Chilo suppressalis [3] turned out to be 100%. Further, the mortality at 5 ppm in the assay with Culex pipiens molestus amounted to 100%. Besides, the mortality at 50 ppm in the assay on Nilaparvata lugens worked out at 60%.

Take `CN(C)CCCC1CSSC1.O=C(O)C(=O)O`: the mortality at 500 ppm was found to be 100% in the assay on Tetranychus urticae [1] and 0% in the assay on Spodoptera litura. Besides, the mortality with Chilo suppressalis [3] was determined as 60%. The mortality at 5 ppm in the assay on Culex pipiens molestus turned out to be 40%. Besides, the mortality at 50 ppm in the assay with Nilaparvata lugens was 10%.

As for `CN(C)C[C@H]1C[C@@H](CN(C)C)SS1.O=C(O)C(=O)O`, the LC50 in the assay on Tetranychus urticae [4] worked out at 20 µg/mL. The figures for the mortality at 500 ppm with Tetranychus urticae [1] and in the assay on Spodoptera litura were 100% and 30%, respectively. In the assay with Chilo suppressalis [3], the mortality worked out at 0%. Further, the mortality at 5 ppm in the assay with Culex pipiens molestus was 0%. For the same molecule, the mortality at 50 ppm with Nilaparvata lugens stood at 5%.

On to `O=C(O)C(=O)O.O=[N+]([O-])c1cccc2c1SSC2`, for which the mortality at 500 ppm is 100% with Tetranychus urticae [1] and 30% in the assay with Spodoptera litura. For the same molecule, the mortality with Chilo suppressalis [3] came out at 10%. Further, the mortality at 5 ppm in the assay with Culex pipiens molestus turned out to be 95%. In the assay with Nilaparvata lugens, the mortality at 50 ppm was found to be 80%.

Take `CN(C)CC1CCC(CN(C)C)SS1.O=C(O)C(=O)O` (stereo not drawn): the mortality at 500 ppm was determined as 100% with Tetranychus urticae [1] and 0% in the assay on Spodoptera litura. In the assay on Chilo suppressalis [3], the mortality was determined as 0%. For the same molecule, the mortality at 5 ppm in the assay on Culex pipiens molestus came out at 0%. The mortality at 50 ppm with Nilaparvata lugens worked out at 0%.

Take `CN(C)CCCCC1CSSC1.O=C(O)C(=O)O`: the values for the mortality at 500 ppm with Tetranychus urticae [1] and in the assay on Spodoptera litura were 100% and 0%, respectively. Moreover, the mortality with Chilo suppressalis [3] is 0%. Besides, the mortality at 5 ppm with Culex pipiens molestus was 75%. Further, the mortality at 50 ppm in the assay on Nilaparvata lugens was determined as 20%.

With `CC1CC(CN(C)C)SS1.O=C(O)C(=O)O` (stereo not drawn), the mortality at 500 ppm in the assay on Tetranychus urticae [1] turned out to be 100%; in the assay on Spodoptera litura it was 20%. In the assay on Chilo suppressalis [3], the mortality is 80%. Further, the mortality at 5 ppm in the assay on Culex pipiens molestus amounted to 0%. In addition, in the assay on Nilaparvata lugens, the mortality at 50 ppm was 95%.

As for `CN(C)CCC1CSSC1.O=C(O)C(=O)O`, the mortality at 500 ppm turned out to be 100% with Tetranychus urticae [1] and 40% with Spodoptera litura. Moreover, the LD50 with Chilo suppressalis [2] was 28.1 mg/kg. Besides, the mortality in the assay on Chilo suppressalis [3] is recorded as 100%. Moreover, the mortality at 5 ppm in the assay on Culex pipiens molestus is 95%. The mortality at 50 ppm in the assay on Nilaparvata lugens turned out to be 100%.

Take `CN1CCCCC1C1CSSC1.O=C(O)C(=O)O` (stereo not drawn): the mortality at 500 ppm with Tetranychus urticae [1] amounted to 100%; with Spodoptera litura, 10%. Also, the mortality in the assay with Chilo suppressalis [3] is 70%. Also, in the assay with Culex pipiens molestus, the mortality at 5 ppm turned out to be 95%. The mortality at 50 ppm in the assay with Nilaparvata lugens came out at 100%.

For the molecule `CN(C)CC1CCCSS1.O=C(O)C(=O)O` (stereo not drawn), the mortality at 500 ppm in the assay on Tetranychus urticae [1] was 20%; in the assay on Spodoptera litura, 0%. Also, in the assay with Chilo suppressalis [3], the mortality is listed as 0%. The mortality at 5 ppm in the assay on Culex pipiens molestus was 0%. For the same molecule, the mortality at 50 ppm with Nilaparvata lugens stood at 50%.

In the case of `O=C(O)C(=O)O.c1ccc(C2CSSC2)nc1`, the mortality at 500 ppm was determined as 100% with Tetranychus urticae [1] and 0% in the assay on Spodoptera litura. In the assay on Chilo suppressalis [3], the mortality is 10%. In the assay on Culex pipiens molestus, the mortality at 5 ppm is 100%. For the same molecule, in the assay with Nilaparvata lugens, the mortality at 50 ppm was 70%.

As to `CN(C)CC1(C)CSSC1.O=C(O)C(=O)O`, the values for the mortality at 500 ppm in the assay with Tetranychus urticae [1] and in the assay with Spodoptera litura were 90% and 40%, respectively. In the assay on Chilo suppressalis [3], the mortality worked out at 70%. Moreover, the mortality at 5 ppm in the assay on Culex pipiens molestus is 100%. The mortality at 50 ppm in the assay on Nilaparvata lugens came to 100%.

Regarding `CN(C)CC1CCSS1.O=C(O)C(=O)O` (stereo not drawn), the values for the mortality at 500 ppm with Tetranychus urticae [1] and in the assay on Spodoptera litura were 100% and 30%, respectively. In addition, the median lethal dose (LD50) with Chilo suppressalis [2] amounted to 4.3 mg/kg. For the same molecule, the mortality with Chilo suppressalis [3] turned out to be 100%. Moreover, in the assay with Culex pipiens molestus, the mortality at 5 ppm was 100%. Further, in the assay with Nilaparvata lugens, the mortality at 50 ppm is 80%.

`CN(C)C[C@H]1C[C@H](CN(C)C)SS1.O=C(O)C(=O)O` (relative stereo): the LC50 in the assay on Tetranychus urticae [4] came to 116 µg/mL. The mortality at 500 ppm with Tetranychus urticae [1] turned out to be 90%; in the assay on Spodoptera litura, 0%. Moreover, the mortality in the assay on Chilo suppressalis [3] amounted to 0%. For the same molecule, in the assay with Culex pipiens molestus, the mortality at 5 ppm was 0%. In addition, the mortality at 50 ppm with Nilaparvata lugens amounted to 20%.

(Values after ChEMBL document CHEMBL3046101, “Synthesis and Biological Activity of 1,2-Dithiolanes and 1,2-Dithianes Bearing a Nitrogen-containing Substituent” (1992).)
